Molecules are shown by their SMILES. pIC50: −log10 of the molar value. Read-outs that look alike come from different tables or passages of the source.

In this test the target is T1, human MAGL (Homo sapiens, UniProt Q99685).
T1 construct: recombinant MAGL enzyme (aa 2-303 RBC, internal preparation)
T1 sequence (Q99685 2-303): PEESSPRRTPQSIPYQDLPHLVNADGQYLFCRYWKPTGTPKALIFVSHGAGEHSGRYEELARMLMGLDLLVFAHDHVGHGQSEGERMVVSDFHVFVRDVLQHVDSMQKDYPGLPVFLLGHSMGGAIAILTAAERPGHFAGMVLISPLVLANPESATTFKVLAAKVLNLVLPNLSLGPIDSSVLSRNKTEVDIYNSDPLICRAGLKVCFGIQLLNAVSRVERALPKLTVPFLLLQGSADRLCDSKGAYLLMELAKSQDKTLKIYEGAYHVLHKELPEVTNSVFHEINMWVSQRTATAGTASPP
The test is described as follows: MAGL inhibition potency assay with 4-nitrophenyl acetate (4NPA) substrate, absorbance 405 nm. Conditions: read-out: MAGL Potency (Detection Method). Format: biochemical. An excerpt: Example 22: Measuring MAGL Inhibition Potency (IC50) The potency of certain compounds for inhibiting MAGL were obtained using the following assays. The monoacylglycerol lipase inhibitor screening assay kit from Cayman Chemical was used to measure the MAGL potency for the compounds in Table 6 and Table 7. Cayman's Monoacylglycerol Lipase Inhibitor Screening Assay provides a method for screening human MAGL inhibitors. MAGL hydrolyzes 4-nitrophenylacetate resulting in a yellow product, 4-nitrophenol, with an absorbance of 405-412 nm. MAGL Inhibition was measured by the following assay. Monoacylglycerol Lipase (MAGL) inhibition was measured using recombinant MAGL enzyme (aa 2-303 RBC, internal preparation) and the substrate 4-Nitrophenyl acetate (4NPA) (Sigma-Aldrich, N8130). Hydrolysis of the substrate in the presence of the enzyme was measured by absorbance at 405 nm. 10 μL of assay buffer (10 mM Tris pH 7.5, 1 mM EDTA, 0.9% DMSO) was added to a black 384-well non-binding plate with clear bottom (Greiner, 781906) for each reaction. […] DMSO control wells were included for reference. A 10.8 nM (1.8×) MAGL mix in assay buffer was prepared, with 25 μL added to each reaction well, for a final assay concentration of 6 nM. No enzyme wells received 25 μL of buffer. Plate was incubated at room temperature for 30 minutes. 35 mM solution of 4NPA in methanol was prepared daily. A 4.5×4NPA substrate solution was prepared in assay buffer and 10 μL was added to each reaction well, for a final assay concentration of 0.25 mM. Plate was spun for […] at 100 rpm before measuring absorbance using a CLARIOstar plate reader (BMG Labtech). A kinetic reading at 405 nm was done every minute for 30 minutes. Data was analyzed using the linear slope of the reaction progress curve and the average of the no-enzyme wells (background) was subtracted from the data. The background-subtracted slope data was converted to % activity using the average of wells with enzyme and DMSO vehicle. IC50 were calculated using GraphPad software (Sigmoidal dose response, variable slope equation). […] Table S provides potency measurements of MAGL inhibition measured using the Potency Assay of Example 22 above, with the following modifications described in Table C. [table]

Setting [1] is: Method 12: Reaction Biology MAGL enzyme prep, 15 nM enzyme.
[2] abbreviates: Method 13: Reaction Biology MAGL enzyme prep, 12 nM enzyme.

As to `O=C(c1cc(O)ccc1F)N1CC2(CC(n3nccc3-c3ccccc3C(F)(F)F)C2)C1` (single isomer, unassigned) [Compound 526, (2-fluoro-5-hydroxyphenyl)(6-(5-(2-(trifluoromethyl)phenyl)-1H-pyrazol-1-yl)-2-azaspiro [3.3]heptan-2-yl)methanone], the pIC50 under setting [1] was 6.82 to 7.30.

For the compound `Cc1cc(C2CC3(C2)CN(C(=O)c2ccc(F)cc2OC2CC2)C3)n(-c2cc(F)ccc2C)n1` (single isomer, unassigned) [Compound 418, (2-cyclopropoxy-4-fluorophenyl){6-[1-(5-fluoro-2-tolyl)-3-methyl-5-pyrazolyl]-2-aza-2-spiro[3.3]heptyl}methanone], the pIC50 under setting [1] was 6.82 to 7.30.

On to `Cc1ccc(F)cc1-c1cc(C2CC2)n(C2CC3(C2)CN(C(=O)c2cc(O)ccc2F)C3)n1` (single isomer, unassigned) [Compound 491, (6-(5-cyclopropyl-3-(5-fluoro-2-methylphenyl)-1H-pyrazol-1-yl)-2-azaspiro [3.3]heptan-2-yl)(2-fluoro-5-hydroxyphenyl)methanone], for which, under setting [2], the pIC50 was more than 7.30.

Consider `Cc1ccc(F)cc1-n1nc(C2CC3(C2)CN(C(=O)c2ccc(F)cc2OC2CC2)C3)cc1C` (single isomer, unassigned) [Compound 482, (2-cyclopropoxy-4-fluorophenyl){6-[1-(5-fluoro-2-tolyl)-5-methyl-3-pyrazolyl]-2-aza-2-spiro[3.3]heptyl}methanone], for which, under setting [1], the pIC50 was 6.00 to 6.30.

For `Cc1ccc(F)cc1-c1cc(C2CC2)nn1C1CC2(C1)CN(C(=O)c1cc(O)ccc1F)C2` (single isomer, unassigned) [Compound 490, (6-(3-cyclopropyl-5-(5-fluoro-2-methylphenyl)-1H-pyrazol-1-yl)-2-azaspiro [3.3]heptan-2-yl) (2-fluoro-5-hydroxyphenyl) methanone], under setting [2], the pIC50 is 6.82 to 7.30.

In the case of `Cc1ccccc1-n1nccc1C1CC2(C1)CN(C(=O)c1cc(O)ccc1F)C2` [Compound 367, (2-fluoro-5-hydroxyphenyl) (6-(1-(o-tolyl)-1H-pyrazol-5-yl)-2-azaspiro [3.3]heptan-2-yl) methanone], for the setting “Method 14: Reaction Biology MAGL enzyme prep, 6 nM enzyme (Conc "0", Source "0")”, the pIC50 is 6.82 to 7.30.

For the compound `Cc1ccc(F)c(-c2c(C(F)(F)F)cnn2C2CC3(C2)CN(C(=O)c2cc(O)ccc2F)C3)c1` (single isomer, unassigned) [Compound 474, (2-fluoro-5-hydroxyphenyl)(6-(5-(2-fluoro-5-methylphenyl)-4-(trifluoromethyl)-1H-pyrazol-1-yl)-2-azaspiro[3.3]heptan-2-yl)methanone], the pIC50 under setting [1] was 6.30 to 6.82.

On to `O=C(c1cc(O)ccc1F)N1CC2(CC(n3ncc(C(F)(F)F)c3-c3ccccc3F)C2)C1` (single isomer, unassigned) [Compound 472], for which the pIC50 under setting [1] was 6.82 to 7.30.

Turning to `O=C(c1cc(O)ccc1F)N1CC2(CC(n3ncc(C4CC4)c3-c3ccccc3F)C2)C1` (single isomer, unassigned) [Compound 492, (6-(4-Cyclopropyl-5-(2-fluorophenyl)-1H-pyrazol-1-yl)-2-azaspiro [3.3]heptan-2-yl) (2-fluoro-5-hydroxyphenyl) methanone], the pIC50 under setting [1] was 6.82 to 7.30.
